Measured values reported in patent US9427408B2, “Silica-matrix forming compositions, materials formed therefrom, and methods of using the same” (priority 2011, dated 2016).

What was measured:
HFF cells = format: cell-based; settings: 0.19 and 0.38 M EG, 48 h incubation
Procedure: (§1) Human foreskin fibroblasts (HFF), and mouse embryonic fibroblasts (MEF) were obtained from the American Type Cell Collection (Manasas, Va.). HFF and MEF cells were cultured in DMEM basal media supplemented with 15% fetal bovine serum (FBS), and 1% penicillin/streptomycin. Cells were incubated in a 5% CO2 atmosphere at 37° C. until they reached 80-90% confluence. Cells were then washed with phosphate buffer saline (PBS) and trypsinized with 0.25% Trypsin-EDTA for 5 min at 37° C. For cytotoxicity measurements and encapsulation experiments, cells were centrifuged at 800 rpm for 5 min. The supernatant was removed and the pelleted cells were suspended in their own growth media at a concentration of about 500,000 cells/ml.
(§2) Membrane integrity of the encapsulated cells in silica and SPEG gels was measured using a live-dead fluorescence assay containing Hoechst (H) and Propidium Iodide (PI) fluorescent dyes. A Nikon Eclipse T200 microscope (Nikon Instruments Inc., Melville, N.Y.) equipped with 10×, and 20× objectives were used to collect the bright field and fluorescent images.
(§3) MA of the encapsulated cells was measured with alamar blue (AB) fluorescence. For fluorescence measurements a SpectraMAX Gemini microplate reader (Molecular Devices Inc, Sunnyvale, Calif.) was used. The samples were excited at 540 nm and their emission was measured at 590 nm. LDH assay was performed 24 h after encapsulation of the cells. The assay was performed using a commercially available kit (Roche Applied Science, Indianapolis, Ind.). The levels of extracellular LDH activity were determined using a UV-vis SpectraMAX microplate reader (Molecular Devices, Sunnyvale, Calif.) by absorbance at 492 nm.
(§4) During the encapsulation process, mammalian cells were exposed to individual and aggregated SNPs in the surrounding solutions as gel formation proceeds. SNPs can be mildly cytotoxic. The toxicity of the encapsulation process was analyzed by incubating mammalian cells in 0.01 and 0.03 M SNP solutions. These were the concentrations used in the gels. After 24 h of incubation in the presence of SNPs, the cell membrane integrity and MA was measured.
(§5) Another factor for cytotoxicity is the formation of cytotoxic by-products such as EG during the hydrolysis reaction. HFF and MEF cells were incubated with 0.19 and 0.38 M EG to test for cytotoxicity. The concentrations of EG used in these experiments were based on the stoichiometric reaction of 10% (v/v) THEOS assuming a complete reaction. […] FIG. 6 illustrates cytotoxicity of SNPs and EG on: (A) HFF, (B) MEF.

MEF cells = format: cell-based; settings: 0.19 and 0.38 M EG, 48 h incubation
Procedure: as §1, §2, §3, §4, §5

`OCCO` [EG, ethylene glycol] was tested, and the cell membrane damage (HFF cells) was “did not cause any cell membrane damage”, the “effect on MA of the cells” value (HFF cells) was “nor had any effects on the MA” and the cell membrane damage (MEF cells) was “did not cause any cell membrane damage”. The “effect on MA of the cells” value (MEF cells) was “nor had any effects on the MA”.
